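Cells were grown in 96-well plates and exposed to each compound for 48 hours at five concentrations; endpoints were interpolated linearly between bracketing concentrations, or set to the highest concentration if not reached. GI50 marks 50% less growth. TGI is the concentration that stops growth completely.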

Usually GI50 stands for the concentration that inhibits growth by half. In general, TGI refers to the concentration giving total growth inhibition. High values mean less potent growth arrest, low ones more potent growth arrest.

Among the test systems are RPMI-8226 leukemia; MDA-MB-435; SNB-19 CNS; M14 melanoma; SNB-75 CNS; HOP-92 NSCLC; ACHN renal; HL-60(TB) leukemia; NCI-H460 lung; CAKI-1 renal.
Common to all, as to assay: DTP human tumour cell line panel, 48 h

With `CC1(C)CN(CCNc2nccc(-c3c(-c4cccc(O)c4)nc4sccn34)n2)S(=O)(=O)N1`, the GI50 was 16.6 µM in the assay with RPMI-8226 leukemia; 0.641 µM in the assay with MDA-MB-435; greater than 33.2 µM in the assay with SNB-19 CNS; 0.317 µM in the assay with M14 melanoma; 5.14 µM with SNB-75 CNS; 29.4 µM in the assay on HOP-92 NSCLC. Also, the GI50 is 7.07 µM with ACHN renal, 10.2 µM in the assay on HL-60(TB) leukemia, 7.07 µM with NCI-H460 lung and 6.12 µM in the assay on CAKI-1 renal. Also, the TGI with RPMI-8226 leukemia was greater than 33.2 µM; in the assay with MDA-MB-435, greater than 33.2 µM; in the assay with SNB-19 CNS, greater than 33.2 µM; in the assay with M14 melanoma, greater than 26.4 µM; with SNB-75 CNS, greater than 33.2 µM; in the assay on HOP-92 NSCLC it was greater than 33.2 µM. Besides, the concentration for total growth inhibition (TGI) is greater than 33.2 µM in the assay with ACHN renal, 30.2 µM in the assay on HL-60(TB) leukemia, greater than 33.2 µM with NCI-H460 lung and greater than 27.2 µM in the assay on CAKI-1 renal.

Regarding `CC[Si](CC)(CC)OC1[C@@H](O[Si](CC)(CC)CC)[C@@H](CNC(=O)NC)O[C@H]1n1cnc2c(NC(=O)Nc3ccccc3)ncnc21` (stereo not given in full), the GI50 was 2.13 µM in the assay on RPMI-8226 leukemia; 3.17 µM with MDA-MB-435; 5.28 µM in the assay on SNB-19 CNS; 3.75 µM in the assay on M14 melanoma; 3.95 µM in the assay on SNB-75 CNS; 1.58 µM in the assay on HOP-92 NSCLC. In addition, the GI50 was 3.44 µM with ACHN renal, 2.49 µM with HL-60(TB) leukemia, 2.48 µM with NCI-H460 lung and 2.76 µM with CAKI-1 renal. The TGI with RPMI-8226 leukemia was 5.33 µM; in the assay on MDA-MB-435 it was greater than 100 µM; in the assay on SNB-19 CNS, greater than 100 µM; with M14 melanoma, greater than 100 µM; with SNB-75 CNS it was greater than 100 µM; with HOP-92 NSCLC, 5.26 µM. Also, the TGI with ACHN renal is greater than 100 µM; with HL-60(TB) leukemia it was 6.32 µM; in the assay on NCI-H460 lung, 6.61 µM; in the assay on CAKI-1 renal, 12.2 µM.

Consider `C/C=C(\C)C(=O)O[C@@H]1C=CC(=O)O[C@H]1CNC(=O)[C@H](C)O`, for which the GI50 was 9.12 µM in the assay with RPMI-8226 leukemia; 22.6 µM in the assay with MDA-MB-435; 27 µM in the assay with SNB-19 CNS; 18.6 µM with M14 melanoma; 24.4 µM in the assay with SNB-75 CNS; 17.4 µM in the assay with HOP-92 NSCLC. The GI50 in the assay with ACHN renal was 15.9 µM; with HL-60(TB) leukemia, 8.67 µM; in the assay with NCI-H460 lung, 22.2 µM; in the assay on CAKI-1 renal, 17.8 µM. Also, the TGI with RPMI-8226 leukemia was 33.3 µM; with MDA-MB-435, 82.1 µM; with SNB-19 CNS it was greater than 74.8 µM; in the assay with M14 melanoma it was 49.1 µM; in the assay on SNB-75 CNS, greater than 74.3 µM; with HOP-92 NSCLC, 37.5 µM. Besides, the TGI in the assay on ACHN renal was determined as 31.2 µM; with HL-60(TB) leukemia, 32.3 µM; with NCI-H460 lung, 67.9 µM; in the assay on CAKI-1 renal, 36.5 µM.

Turning to `Cc1ccc(C2C3Cc4ccccc4C3=NN2c2ccc(S(=O)(=O)NC(=O)Nc3ccccc3)cc2)cc1` (stereo not given), the GI50 is 15 µM in the assay on RPMI-8226 leukemia; 18.7 µM in the assay with MDA-MB-435; 25.4 µM with SNB-19 CNS; 17 µM in the assay with M14 melanoma; 17.9 µM in the assay on SNB-75 CNS; 14.3 µM in the assay with HOP-92 NSCLC. In addition, the GI50 in the assay on ACHN renal is 14.1 µM; with HL-60(TB) leukemia it was 19.6 µM; in the assay on NCI-H460 lung, 19.3 µM; in the assay with CAKI-1 renal it was 14.6 µM. The total growth inhibition concentration (TGI) in the assay on RPMI-8226 leukemia was 47.2 µM; in the assay with MDA-MB-435, 46.2 µM; with SNB-19 CNS it was greater than 100 µM; with M14 melanoma, 40.3 µM; with SNB-75 CNS, 47.8 µM; in the assay on HOP-92 NSCLC, 28.2 µM. Moreover, the TGI amounted to 27.5 µM with ACHN renal, 42.1 µM in the assay on HL-60(TB) leukemia, 70.1 µM with NCI-H460 lung and 37.9 µM with CAKI-1 renal.

For the compound `O=C(COc1cccc(/C=C2\Oc3ccc4ccccc4c3C2=O)c1)c1ccc([N+](=O)[O-])cc1`, the GI50 in the assay with RPMI-8226 leukemia was 1.12 µM; with MDA-MB-435 it was 28.9 µM; in the assay on SNB-19 CNS it was 34.1 µM; in the assay on M14 melanoma it was 18.3 µM; in the assay on SNB-75 CNS, 18.9 µM; in the assay with HOP-92 NSCLC, 12.9 µM. In addition, the GI50 with ACHN renal is 60.2 µM; in the assay on HL-60(TB) leukemia it was 62.7 µM; with NCI-H460 lung it was 37 µM; in the assay on CAKI-1 renal, 45.9 µM. Moreover, the total growth inhibition concentration (TGI) in the assay with RPMI-8226 leukemia is 13.3 µM; in the assay with MDA-MB-435, greater than 100 µM; in the assay on SNB-19 CNS, greater than 100 µM; in the assay with M14 melanoma, 53.4 µM; in the assay on SNB-75 CNS it was 53 µM; in the assay on HOP-92 NSCLC, 35.9 µM. The TGI in the assay on ACHN renal, with HL-60(TB) leukemia, in the assay with NCI-H460 lung and in the assay with CAKI-1 renal was greater than 100 µM in each case.

In the case of `Nc1nc(N)c(-c2ccc(Cl)c(Cl)c2)c(CP(Cl)(Cl)(Cl)Br)n1`, the GI50 was 17.3 µM in the assay with RPMI-8226 leukemia; 4.4 µM with MDA-MB-435; 31.9 µM in the assay on SNB-19 CNS; 6.62 µM in the assay with M14 melanoma; 39.7 µM in the assay with SNB-75 CNS; 12.6 µM in the assay with HOP-92 NSCLC. In addition, the GI50 with ACHN renal was 6.63 µM; in the assay with HL-60(TB) leukemia it was 4.07 µM; in the assay with NCI-H460 lung, 1.58 µM; with CAKI-1 renal, 14.7 µM. In addition, the TGI with RPMI-8226 leukemia is greater than 100 µM; in the assay on MDA-MB-435, 84.3 µM; with SNB-19 CNS, greater than 100 µM; with M14 melanoma it was greater than 100 µM; in the assay on SNB-75 CNS it was greater than 100 µM; in the assay on HOP-92 NSCLC, 54.3 µM. The concentration for total growth inhibition (TGI) is greater than 100 µM with ACHN renal, 31.6 µM in the assay on HL-60(TB) leukemia, greater than 100 µM in the assay on NCI-H460 lung and greater than 100 µM with CAKI-1 renal.

Regarding `CCC(C(=O)[C@@H](C)[C@@H](O)[C@H](C)[C@@H]1O[C@@H]([C@@H](CC)C(=O)ONC(=O)c2ccccc2)CC[C@@H]1C)[C@H]1O[C@]2(C=CC(=O)[C@]3(CC[C@@](C)([C@H]4CC[C@](O)(CC)[C@H](C)O4)O3)O2)[C@H](C)C[C@@H]1C` (stereo not given in full), the 50% growth inhibitory concentration (GI50) in the assay with RPMI-8226 leukemia was 0.0838 µM; in the assay with MDA-MB-435, 1.11 µM; in the assay with SNB-19 CNS it was 0.588 µM; in the assay on M14 melanoma, 1.32 µM; in the assay with SNB-75 CNS, 0.238 µM; in the assay with HOP-92 NSCLC, 0.141 µM. Moreover, the GI50 in the assay with ACHN renal was 0.641 µM; with HL-60(TB) leukemia, 0.0875 µM; with NCI-H460 lung it was 0.331 µM; in the assay on CAKI-1 renal, 1.01 µM. The TGI in the assay with RPMI-8226 leukemia worked out at 2.3 µM; in the assay with MDA-MB-435 it was 2.88 µM; with SNB-19 CNS, 3.43 µM; in the assay with M14 melanoma it was 7.5 µM; in the assay on SNB-75 CNS, 2.04 µM; in the assay with HOP-92 NSCLC, 1.87 µM. Moreover, the total growth inhibition concentration (TGI) came to 2.03 µM in the assay with ACHN renal, 0.442 µM in the assay with HL-60(TB) leukemia, 2.09 µM with NCI-H460 lung and 2.71 µM in the assay with CAKI-1 renal.

Source of the values: PubChem BioAssay (NCI).
